Test results published in patent US9308268B2, “Solubilized benzoyl peroxyde acne” (TRANSDERMAL CORP, priority 2005, dated 2016).

What was measured:
[1] = Solubility of benzoyl peroxide; format: physicochemical; conditions: by weight of the solubilized benzoyl peroxide topical formulation
Procedure: Benzoyl peroxide is a crystalline solid with a melting point of 103° C. to 106° C., and is insoluble in water.
Benzoyl peroxide is soluble in organic solvents, but most organic solvents are toxic and therefore not suitable for pharmaceutical/cosmetic use. Polar organic solvents such as acetone and ethanol are less toxic, but the flammability of these solvents as well as the ability of these solvents to irritate and strip the skin of its protective mantle limit their use in pharmaceutical or cosmetic compositions.
In contrast to prior art formulations of benzoyl peroxide, the benzoyl peroxide will actively go into solution at levels as high as 10% by weigh of the solubilized benzyl peroxide topical formulation. Furthermore, the solubilized benzoyl peroxide topical formulation is translucent and has increased efficacy.

[2] = cited from earlier work

## O=C(OOC(=O)c1ccccc1)c1ccccc1 [Benzoyl peroxide]
[1]
  level at which benzoyl peroxide goes into solution: ≤ 10%
[2]; organic solvents
  solubility in organic solvents: soluble
[2]; water
  solubility in water: insoluble
